Laboratory results: PubChem BioAssay AID463199 (Broad Institute, 2010)
Activity calls are given as the source filed them.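 Rule for the calls: active = AC50, the dose giving half-maximal effect, exceeds a fixed cutoff for a compound that rescues yeast growth under heat; inactive = the rest, inconclusive results apart.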

Tested on: S. cerevisiae Burl-1 ts mutant growth, BacTiter-Glo, 38.5C 24 h
Test: restored growth of temperature-sensitive Burl-1 yeast – whole organism, S. cerevisiae, Burl-1 ts mutant, luminescence, counter-screen for SUMOylation pathway inhibitor project, dose response (AID 463199)

| Structure (SMILES) | AC50 |
| --- | --- |
| Cc1nnc(NC(=O)c2ccc(-c3cccc(C(F)(F)F)c3)o2)s1 | > 42 µM (inactive) |
| CCCCC(=O)N/N=C(\C)CC(=O)Nc1cc(Cl)ccc1OC | > 42 µM (inactive) |
| CCOc1ccc(Cn2c(SCCCCC#N)nc3c2c(=O)n(C)c(=O)n3C)cc1OCC | > 42 µM (inactive) |
| CNS(=O)(=O)c1cccc(C(=O)OCC(=O)Nc2ccc(OC)cc2[N+](=O)[O-])c1 | > 42 µM (inactive) |
| COc1ccc2c(c1)c(CC(=O)OCC(N)=O)c(C)n2C(=O)c1ccc(Cl)cc1 | > 42 µM (inactive) |
| COc1cc(CNCc2ccc3c(c2)OCO3)c([N+](=O)[O-])cc1OC | > 42 µM (inactive) |
| CC1=C/C(=N\OS(=O)(=O)c2ccccc2)C(C(C)C)=CC1=O | > 42 µM (inactive) |
| COCCCNCC(O)COc1cccc2[nH]c(C)cc12 (stereo not given) | > 42 µM (inactive) |
| CCC(=O)N1CCc2cc(S(=O)(=O)CCC(=O)Nc3cccc(C)n3)ccc21 | > 42 µM (inactive) |
| CN(C=O)CP(=O)(O)CN(C)C=O | > 42 µM (inactive) |
| COC(=O)[C@@]12CCCCN1[C@H](c1ccc(-c3ccc(C(C)=O)cc3)cc1)[C@@H]1C(=O)N(C)C(=O)[C@@H]12 | > 42 µM (inactive) |
| COc1cc(/C=C(\NC(=O)c2ccccc2)C(=O)Nc2nccs2)ccc1OC(C)=O | > 42 µM (inactive) |
| O=C(c1ccco1)N1CCN(C(=O)C2Cc3ccccc3CN2S(=O)(=O)c2ccc(F)cc2)CC1 (stereo not given) | > 42 µM (inactive) |
| CCCCc1ccc(NC(=S)NCc2cccs2)cc1 | > 42 µM (inactive) |
| O=C(Cn1sc2ccccc2c1=O)NC12CC3CC(CC(C3)C1)C2 | > 42 µM (inactive) |
| O=C1CCCN1CCC1CCN(C2CC(=O)N(c3ccc(Cl)cc3)C2=O)CC1 (stereo not given) | > 42 µM (inactive) |
| COc1cccc(C2CC(c3cccc(NS(C)(=O)=O)c3)=NN2C(=O)c2ccccc2)c1OC (stereo not given) | > 42 µM (inactive) |
| CC(=O)Nc1cccc(OCC(=O)NS(=O)(=O)c2ccc(C)cc2)c1 | > 42 µM (inactive) |
| CCn1c(SCC(=O)N/N=C/c2ccccc2OCC(=O)O)nnc1-c1ccc(C(C)(C)C)cc1 | > 42 µM (inactive) |
| Cc1cc(C)n(-c2ccc(C(=O)C(C#N)c3nc4ccccc4n3C)cc2)n1 (stereo not given) | > 42 µM (inactive) |
| Cc1cc(C)c(NC(=O)CNC(=O)c2cc([N+](=O)[O-])ccc2N2CCOCC2)c(C)c1 | > 42 µM (inactive) |
| COc1ccccc1CNc1nc(SC)ncc1CO | > 42 µM (inactive) |
| O=C(N=C1SC2CS(=O)(=O)CC2N1c1ccc(F)c(Cl)c1)C1CC1 (stereo not given) | > 42 µM (inactive) |
| CC(C)c1nc2n[nH]c(N)c2c2c1CCC2 | > 42 µM (inactive) |

| Structure (SMILES) | AC50 |
| --- | --- |
| Cc1ccc(CNC(=O)c2ccc(N3CCC4(CC3)CC(c3ccccc3)=NO4)c(NC(=O)c3cccc(C)c3)c2)cc1 | > 42 µM (inactive) |
| COc1ccc(C2=C(N)c3ccccc3C2=O)cc1 | > 42 µM (inactive) |
| CCC(=O)c1c[nH]c(C(=O)NCCCn2ccnc2)c1 | > 42 µM (inactive) |
| Cc1cnc(C(=O)OC(C(=O)c2c[nH]c3ccccc23)c2ccccc2)cn1 (stereo not given) | > 42 µM (inactive) |
| CCCCOc1ccc(CSC(=N)N)cc1Cl | > 42 µM (inactive) |
| COC(CNC(=O)c1cn(C)c2ccc(S(=O)(=O)N3CCOCC3)cc2c1=O)OC | > 42 µM (inactive) |
| CN1C2CCC1CC(OC(=O)c1ccc([N+](=O)[O-])cc1)C2 (stereo not given) | > 42 µM (inactive) |
| CCOC(=O)CSc1cc(C)nc2ccc(OC)cc12 | > 42 µM (inactive) |
| O=C(c1ccc2c(=O)n(Cc3ccccc3Cl)c(=S)[nH]c2c1)N1CCOCC1 | > 42 µM (inactive) |
| O=C(CCCn1cnc([N+](=O)[O-])n1)Nc1cccc2ccccc12 | > 42 µM (inactive) |
| CCCCOC(=O)/C(=C/C=C/c1ccccc1)NC(=O)c1ccccc1 | > 42 µM (inactive) |
| O=C(/C=C/c1ccc(F)cc1)NCC1(c2ccccc2)CCOCC1 | > 42 µM (inactive) |
| CCOC(=O)C1(Cc2cccc(OC)c2)CCCN(S(=O)(=O)c2cccnc2)C1 (stereo not given) | > 42 µM (inactive) |
| Cc1ccc(S(=O)(=O)NNC(=O)c2cc3cc4ccccc4nc3s2)cc1 | > 42 µM (inactive) |
| CCOC(=O)Nc1sc(=S)n(C)c1C | > 42 µM (inactive) |
| CCOc1ccc(-c2c(C(=O)N/N=C/c3ccncc3)nnn2-c2nonc2N)cc1 | > 42 µM (inactive) |
| O=C(OCC(=O)N1CCN(c2ccccc2)CC1)c1nc(Cl)ccc1Cl | > 42 µM (inactive) |
| CN(C)CCN(Cc1ccc(Cl)cc1)c1ccccn1 | 36.3 µM |
| CC(=O)c1ccc(C(=O)N2CCCC(N3CCN(c4ccc(F)cc4)CC3)C2)s1 (stereo not given) | > 42 µM (inactive) |
| C=CCOc1ccccc1CN1CCCC(CCC(=O)N(C)CCc2ccccn2)C1 (stereo not given) | > 21 µM (inactive) |
| CCOC(=O)c1ccc(NC(=O)CC2Sc3ncnn3C2=O)cc1 (stereo not given) | > 42 µM (inactive) |
| COc1ccc(NC(=O)CN2C(=O)c3ccccc3S2(=O)=O)cc1OC | > 42 µM (inactive) |
| Cc1c(=O)n(OCc2ccccn2)c2ccccc2[n+]1[O-] | > 42 µM (inactive) |
| O=C(/C=C/c1ccc(Cl)cc1Cl)Nc1cccc(S(=O)(=O)NC2=NCCCCC2)c1 | > 42 µM (inactive) |

| Structure (SMILES) | AC50 |
| --- | --- |
| Cc1cc(C(=O)NNC(=O)c2ccc(C)s2)c(C)o1 | > 42 µM (inactive) |
| NC(=O)C1=C[C@@H](c2ccc(Br)cc2)C[C@@H](OCCCCO)O1 | > 42 µM (inactive) |
| COc1ccc(C(=O)OCC(=O)c2ccccc2)cc1S(=O)(=O)N1CCOCC1 | > 42 µM (inactive) |
| Cc1cccc(N2CCN(CCCNC(=O)c3ccc(NC(=O)C4=CSCCO4)cc3)CC2C)c1 (stereo not given) | > 42 µM (inactive) |
| CC(C)C/C(=N/O)c1c[nH]c2ccccc12 | > 42 µM (inactive) |
| CN(C)C1(c2nnnn2-c2ccc(Cl)cc2)CCCCC1 | > 42 µM (inactive) |
| COc1ccc(N(C(=O)c2ccco2)C(C(=O)NC2CCCCC2)c2ccccc2)cc1 (stereo not given) | > 42 µM (inactive) |
| COc1ccc(Oc2c(C)oc3cc(OC(=O)N(C)C)ccc3c2=O)cc1 | > 42 µM (inactive) |
| CCOC(=O)N1CCN(c2cc3[nH]c(=S)[nH]c3cc2F)CC1 | > 42 µM (inactive) |
| CCOC(=O)C1=C(C)Nc2ncnn2C1/C=C/c1ccccc1 (stereo not given) | > 42 µM (inactive) |
| Cc1ccc(C(=O)/C=C/c2ccc(-c3ccccc3[N+](=O)[O-])o2)cc1 | > 42 µM (inactive) |
| CN1C(=S)SC2CS(=O)(=O)CC21C (stereo not given) | > 21 µM (inactive) |
| O=C(NCc1ccccc1Cl)C(=O)NCC1CCCN1S(=O)(=O)c1cccs1 (stereo not given) | > 42 µM (inactive) |
| Oc1c(Cl)cc(Cl)c(Cl)c1Cc1c(O)c(Cl)cc(Cl)c1Cl | > 42 µM (inactive) |
| CC(C)CC(=O)Nc1ccc(C(=O)CN2C(=O)NC3(CCOc4ccccc43)C2=O)cc1 (stereo not given) | > 42 µM (inactive) |
| Clc1ccc(CONc2ncnc3nonc23)c(Cl)c1 | 9.28 µM |
| O=C(COC(=O)C1COc2ccccc2O1)NC1CCS(=O)(=O)C1 (stereo not given) | > 42 µM (inactive) |
| COc1cc2ccccc2cc1C(=O)Nc1ccc(CN2CCOCC2)cc1 | > 42 µM (inactive) |
| Nc1ccc(Oc2ccccc2-c2ccccc2)cc1 | > 42 µM (inactive) |
| COc1ccc(Cl)cc1C(=O)NCCc1ccc(S(=O)(=O)NC(=O)NC2CCCCC2)cc1 | > 42 µM (inactive) |
| CSc1nnc2c3cc(C)ccc3n(Cc3ccccc3)c2n1 | > 42 µM (inactive) |
| CSc1nncc(/C(C)=N\Nc2cccc(C)c2)n1 | > 42 µM (inactive) |
